From patent publication US11597703B2, “Caspase inhibitors and methods of use thereof” (Histogen Inc., priority 2019, dated 2023)

Experiments:
Jurkat cells = assay: Prevention of Fas-induced apoptosis in Jurkat cells (WST-8); type: cell-based; conditions: Homo sapiens, 10 micromolar, read-out: % Prevention of Fas - induced Jurkat cell apoptosis at 10 micromolar
Procedure: Compounds of the present invention were evaluated in Jurkat cells, a human T-lymphocyte cell line, to evaluate compounds ability to inhibit apoptotic cell death. Jurkat cells, Clone E6-1 (ATCC TIB-152) were grown in culture maintain a cell density between 0.5-2 million cells/mL. Cells were tested for viability and countion with typan blue stain before use. Test compounds were addedd to 96 well plates and Jurkat cells were added at a concentration of approximately 100,000 cells per well and mixed thoroughly by action of pipetting. Plated cells were incubated for 1 hour at 37 degrees C. under an atmosphere of 5% CO2. Anti-Fas antibody was added and mixed by pipet action. Plates were incubated for 20 hours at 37 degrees C. under an atmosphere of 5% CO2. 10 microliters of thawed WST-8 solution was added to each well and incubated for 4 hours. Absorbance was measured at 450 nm and control reading at […] using a SpectraMax ID5 plate reader. Apoptotic cell death is executed by caspases 3, 7 and 6. Compounds that lack activity against these caspases will not prevent the death of Jurkat cells and is a functional test of selectivity for inflammatory over apoptotic caspases.
IC50 values to protect against Fas induced apoptosis and improve survival of Jurkat cells were determined from dose response studies.

Caspase 6 = molecular target: T1, Caspase 6 (Homo sapiens, UniProt P55212); assay: Caspase 6 enzymatic inhibition assay, IC50; type: biochemical; conditions: read-out: Caspase 6 enzyme inhibition IC50
T1 construct: purchased Enzo Biosciences
T1 sequence (P55212 24-179 limits assumed): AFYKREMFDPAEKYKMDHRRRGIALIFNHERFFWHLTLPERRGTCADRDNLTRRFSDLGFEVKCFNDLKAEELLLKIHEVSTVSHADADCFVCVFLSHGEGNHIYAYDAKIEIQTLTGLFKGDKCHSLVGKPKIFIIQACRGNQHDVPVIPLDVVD
T1 sequence (P55212 194-293 limits assumed): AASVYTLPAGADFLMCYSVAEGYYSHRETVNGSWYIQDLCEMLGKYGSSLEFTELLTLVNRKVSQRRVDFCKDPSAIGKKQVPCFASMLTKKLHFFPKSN
Procedure: (§1) Human caspases were purchased from Enzo Biosciences and used according to the manufacturer's instructions. An exemplary caspase assay, for Caspase-1, is provided below:
(§2) Enzymatic assays were conducted for Caspase-3, 6 and 7 activity according to the manufacture's instructions.

Caspase-3 = molecular target: T2, Caspase-3 (Homo sapiens, UniProt P42574); assay: Caspase-3 enzymatic inhibition assay, IC50; type: biochemical; conditions: read-out: Caspase 3 enzyme inhibition IC50
T2 construct: purchased Enzo Biosciences
T2 sequence (P42574 29-175 limits assumed): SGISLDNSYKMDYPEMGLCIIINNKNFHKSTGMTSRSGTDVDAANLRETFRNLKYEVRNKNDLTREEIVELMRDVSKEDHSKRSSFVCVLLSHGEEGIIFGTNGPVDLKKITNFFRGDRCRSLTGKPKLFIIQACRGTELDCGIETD
T2 sequence (P42574 176-277 limits assumed): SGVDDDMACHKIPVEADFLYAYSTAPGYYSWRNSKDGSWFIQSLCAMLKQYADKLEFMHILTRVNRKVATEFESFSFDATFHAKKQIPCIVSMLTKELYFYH
Procedure: as §1, §2

IL-1β = assay: Inhibition of LPS-stimulated IL-1β in THP-1 cells (ELISA); type: cell-based, human; conditions: 10 micromolar; for inhibition at 10 µM: Homo sapiens, read-out: Percent Inhibition of IL1-β
Procedure: Compounds in the present invention were tested in THP-1 cells, a human monocyte cell line, to assess the inhibition of the inflammatory cytokine IL-1β. THP-1 cells (ATCC TIB-202) were grown in culture and seeded in 96 well plates at a concentration of 200,000 cells per well with a total volume of 150 μL. Plated cells were incubated overnight at 37 degrees C. under an atmosphere of 5% CO2. Media was removed from cells which were washed with PBS. Test compounds were diluted in DMSO stock solution and serially diluted appropriately for initial screening and IC50 determinations. LPS in serum free media (140 μL of […]) was added to each well to stimulate IL-1β production. IL-1β was measured by ELISA assay kit (R&D Systems) per the manufacturers instructions.
IC50 values for the inhibition of IL-1 in THP 1 cells were determined from dose response studies.

Caspase 7 = molecular target: T3, Caspase 7 (Homo sapiens, UniProt P55210); assay: Caspase 7 enzymatic inhibition assay, IC50; type: biochemical; conditions: read-out: Caspase 7 enzyme inhibition IC50
T3 construct: purchased Enzo Biosciences
T3 sequence (P55210 24-198 limits assumed): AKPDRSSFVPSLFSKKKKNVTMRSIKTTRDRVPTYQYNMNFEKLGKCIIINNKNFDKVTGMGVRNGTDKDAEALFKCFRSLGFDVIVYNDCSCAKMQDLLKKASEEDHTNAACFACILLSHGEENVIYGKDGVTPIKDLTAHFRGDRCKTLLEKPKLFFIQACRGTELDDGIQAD
T3 sequence (P55210 207-303 limits assumed): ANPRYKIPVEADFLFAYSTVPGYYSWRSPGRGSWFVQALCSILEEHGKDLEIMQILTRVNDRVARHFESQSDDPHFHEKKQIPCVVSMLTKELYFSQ
Procedure: as §1, §2

Caspase-1 = molecular target: T4, Caspase-1 (Homo sapiens, UniProt P29466); assay: Caspase-1 enzyme inhibition assay (Ac-YVAD-pNA substrate), IC50; type: biochemical
T4 construct: purchased Enzo Biosciences
T4 sequence (P29466 120-297 limits assumed): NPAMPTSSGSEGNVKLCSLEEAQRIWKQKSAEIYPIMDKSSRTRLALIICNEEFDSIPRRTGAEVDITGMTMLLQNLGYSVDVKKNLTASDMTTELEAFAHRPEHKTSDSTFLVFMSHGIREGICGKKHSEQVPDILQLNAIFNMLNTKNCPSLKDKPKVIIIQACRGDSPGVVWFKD
T4 sequence (P29466 317-404 limits assumed): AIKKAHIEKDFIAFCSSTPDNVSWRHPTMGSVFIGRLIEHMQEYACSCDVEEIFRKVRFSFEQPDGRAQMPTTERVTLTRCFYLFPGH
Procedure: as §1
Caspase-1 was diluted to 10 U/μl in assay buffer consisting of 50 mM HEPES, pH 7.4, 100 mM NaCl, 0.1% CHAPS, 1 mM EDTA, 10% glycerol and 10 mM DTT.
45 μl of assay buffer was added into ½ volume microtiter plate. The plate was allowed to equilibrate to assay temperature. 5 μl of Caspase-1 (10 U/μl) was added to each appropriate well. Two 2 blank wells containing assay buffer alone without Caspase-1 were included on the plate.
The reaction was started by the addition of 50 μl Ac-YVAD-pNA substrate, for a final substrate concentration of 200 μM. The reaction was continuously monitored at 405 nm. The data was graphed as OD405 nm vs time, and the slope was determined over the linear portion of the curve. The rates in OD/min were converted to substrate/min using an extinction coefficient for p-nitroaniline of 10,500M-1 cm-1, and were adjusted for pathlength of sample. […]

SMILES	IC50 (Caspase 6)	IC50 (Caspase-3)	IC50 (Caspase 7)	IC50 (Caspase-1)	inhibition at 10 µM (Jurkat cells)	inhibition at 10 µM (IL-1β)	Percent Inhibition of IL1-β (IL-1β)
C[C@H](NC(=O)C(=O)Nc1c(F)cccc1F)C(=O)N[C@@H](CCOCc1ccccc1)C(=O)COc1c(F)c(F)cc(F)c1F [Example 1, N^1-((S)-1-(((S)-5-(Benzyloxy)-2-oxo-1-(2,3,5,6-tetrafluorophenoxy)pentan-3-yl)amino)-1-oxopropan-2-yl)-N^2-(2,6-difluorophenyl)oxalamide]	≥ 1000 nM	≥ 1000 nM	≥ 1000 nM	10 to 100 nM	≤ 10%	50 to 90%	–
C[C@H](NC(=O)C(=O)Nc1c(F)cccc1F)C(=O)N[C@@H](CCO)C(=O)COc1c(F)c(F)cc(F)c1F [Example 2, N^1-(2,6-Difluorophenyl)-N^2—((S)-1-(((S)-5-hydroxy-2-oxo-1-(2,3,5,6-tetrafluorophenoxy)pentan-3-yl)amino)-1-oxopropan-2-yl)oxalamide]	≥ 1000 nM	≥ 1000 nM	≥ 1000 nM	10 to 100 nM	≤ 10%	50 to 90%	–
C[C@H](NC(=O)C(=O)Nc1c(F)cccc1F)C(=O)N[C@@H](CCC(=O)O)C(=O)COc1cc(C(F)(F)F)nc(C(F)(F)F)n1 [Example 33, (S)-6-((2,6-bis(trifluoromethyl)pyrimidin-4-yl)oxy)-4-((S)-2-(2-((2,6-difluorophenyl)amino)-2-oxoacetamido)propanamido)-5-oxohexanoic acid]	≥ 1000 nM	≥ 1000 nM	≥ 1000 nM	≤ 10 nM	–	–	–
C[C@H](NC(=O)C(=O)Nc1ccc(OC(F)(F)F)cc1)C(=O)N[C@@H](CCC(=O)O)C(=O)COc1c(F)c(F)cc(F)c1F [Example 34, (S)-5-oxo-4-((S)-2-(2-oxo-2-((4-(trifluoromethoxy)phenyl)amino)acetamido)propanamido)-6-(2,3,5,6-tetrafluorophenoxy) hexanoic acid]	≥ 1000 nM	≥ 1000 nM	≥ 1000 nM	≤ 10 nM	–	–	–
C[C@H](NC(=O)C(=O)Nc1cnc2ccccc2c1)C(=O)N[C@@H](CCC(=O)O)C(=O)COc1c(F)c(F)cc(F)c1F [Example 35, (S)-5-oxo-4-((S)-2-(2-oxo-2-(quinolin-3-ylamino)acetamido)propanamido)-6-(2,3,5,6-tetrafluorophenoxy)hexanoic acid]	≥ 1000 nM	≥ 1000 nM	≥ 1000 nM	≤ 10 nM	–	–	–
C[C@H](NC(=O)C(=O)Nc1ccncc1)C(=O)N[C@@H](CCC(=O)O)C(=O)COc1c(F)c(F)cc(F)c1F [Example 37, (S)-5-oxo-4-((S)-2-(2-oxo-2-(pyridin-4-ylamino)acetamido)propanamido)-6-(2,3,5,6-tetrafluorophenoxy)hexanoic acid]	≥ 1000 nM	≥ 1000 nM	≥ 1000 nM	≤ 10 nM	–	–	–
C[C@H](NC(=O)C(=O)Nc1c(F)cccc1F)C(=O)N[C@H](CCC(=O)O)C(=O)COc1c(F)c(F)cc(F)c1F [Example 38, (R)-4-((S)-2-(2-((2,6-difluorophenyl)amino)-2-oxoacetamido)propanamido)-5-oxo-6-(2,3,5,6-tetrafluorophenoxy)hexanoic acid]	≥ 1000 nM	≥ 1000 nM	≥ 1000 nM	≤ 10 nM	–	–	–
Cc1cc(C)nc(NC(=O)C(=O)N[C@@H](C)C(=O)N[C@@H](CCC(=O)O)C(=O)COc2c(F)c(F)cc(F)c2F)n1 [Example 41, (S)-4-((S)-2-(2-((4,6-dimethylpyrimidin-2-yl)amino)-2-oxoacetamido)propanamido)-5-oxo-6-(2,3,5,6-tetrafluorophenoxy)hexanoic acid]	≥ 1000 nM	≥ 1000 nM	≥ 1000 nM	≤ 10 nM	–	–	–
C[C@H](NC(=O)C(=O)Nc1c(F)cccc1F)C(=O)N[C@@H](CC(=O)O)C(=O)COc1c(F)c(F)cc(F)c1F [IDN-7314, reference compound]	–	–	–	–	–	–	A (A > 90%)

Second part, led by results:

IC50 (Caspase 6)	IC50 (Caspase-3)	IC50 (Caspase 7)	IC50 (Caspase-1)	SMILES	inhibition at 10 µM (Jurkat cells)	inhibition at 10 µM (IL-1β)	Percent Inhibition of IL1-β (IL-1β)
≥ 1000 nM	≥ 1000 nM	≥ 1000 nM	100 to 1000 nM	C[C@H](NC(=O)C(=O)Nc1c(F)cccc1F)C(=O)N[C@@H](CCOCc1ccc(Cl)cc1)C(=O)COc1c(F)c(F)cc(F)c1F [Example 3, N^1—((S)-1-(((S)-5-((4-Chlorobenzyl)oxy)-2-oxo-1-(2,3,5,6-tetrafluorophenoxy)pentan-3-yl)amino)-1-oxopropan-2-yl)-N^2-(2,6-difluorophenyl)oxalamide]	≤ 10%	25 to 50%	–
≥ 1000 nM	≥ 1000 nM	≥ 1000 nM	≤ 10 nM	C[C@H](NC(=O)C(=O)Nc1cccc2cccnc12)C(=O)N[C@@H](CCC(=O)O)C(=O)COc1c(F)c(F)cc(F)c1F [Example 36, (S)-5-oxo-4-((S)-2-(2-oxo-2-(quinolin-8-ylamino)acetamido)propanamido)-6-(2,3,5,6-tetrafluorophenoxy)hexanoic acid]	–	–	–
≥ 1000 nM	≥ 1000 nM	≥ 1000 nM	≤ 10 nM	C[C@H](NC(=O)C(=O)Nc1ccccn1)C(=O)N[C@@H](CCC(=O)O)C(=O)COc1c(F)c(F)cc(F)c1F [Example 39, (S)-5-oxo-4-((S)-2-(2-oxo-2-(pyridin-2-ylamino)acetamido)propanamido)-6-(2,3,5,6-tetrafluorophenoxy)hexanoic acid]	–	–	–
≥ 1000 nM	≥ 1000 nM	≥ 1000 nM	≤ 10 nM	C[C@H](NC(=O)C(=O)Nc1cccnc1)C(=O)N[C@@H](CCC(=O)O)C(=O)COc1c(F)c(F)cc(F)c1F [Example 40, (S)-5-oxo-4-((S)-2-(2-oxo-2-(pyridin-3-ylamino)acetamido)propanamido)-6-(2,3,5,6-tetrafluorophenoxy)hexanoic acid]	–	–	–
≥ 1000 nM	≥ 1000 nM	≥ 1000 nM	≤ 10 nM	C[C@H](NC(=O)C(=O)Nc1ncccn1)C(=O)N[C@@H](CCC(=O)O)C(=O)COc1c(F)c(F)cc(F)c1F [Example 42, (S)-5-oxo-4-((S)-2-(2-oxo-2-(pyrimidin-2-ylamino)acetamido)propanamido)-6-(2,3,5,6-tetrafluorophenoxy)hexanoic acid]	–	–	–
